PubChem BioAssay AID1963845 (Molecular Pharmacology Branch, DTP, NCI, 2024)

Test system: 429239-143-T-J1-PDC complex spheroid viability
Experiment: Anticancer human tumor 429239-143-T-J1-PDC patient-derived small cell lung carcinoma cell line growth inhibition [POLQ]
Details: for IC50: curve of first compound; for viability, T/C: stronger effect = lower value
How it was run: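 Three-cell-type spheroids modelling solid tumor plus stroma served as the readout system; POL inhibitors were tested individually and in combination, concentration ranges set by clinical Cmax where known.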
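Also: luminescence signal used as surrogate measure of viable cells; spheroids exposed to compounds for seven days before readout.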
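For viability, T/C in this document: 100% = DMSO vehicle control viability as luminescence relative to vehicle.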

For `CC(=O)O[C@H]1C(=O)[C@@]2(C)[C@H]([C@H](OC(=O)c3ccccc3)[C@]3(O)C[C@H](OC(=O)[C@H](O)[C@@H](NC(=O)c4ccccc4)c4ccccc4)C(C)=C1C3(C)C)[C@]1(OC(C)=O)CO[C@@H]1C[C@@H]2O` + COC1C(OC(N)=O)C(O)C(Oc2ccc3c(O)c(NC(=O)c4ccc(O)c(CC=C(C)C)c4)c(=O)oc3c2C)OC1(C)C, the IC50 (second compound 0.0316 µM) was < 0.00949 µM, the IC50 (second compound 0.1 µM) was < 0.00949 µM and the IC50 (second compound 0.316 µM) was < 0.00949 µM. For the same molecule, the IC50 (second compound 1 µM) was < 0.00949 µM, the IC50 (second compound 3.16 µM) was < 0.00949 µM and the IC50 (second compound 10 µM) was < 0.00949 µM. For the same molecule, the viability, T/C (second compound 0.0316 µM, first compound 0.00949 µM) was 12.5%, the viability, T/C (second compound 0.0316 µM, first compound 0.03 µM) was 12.8% and the viability, T/C (second compound 0.0316 µM, first compound 0.0949 µM) was 10.9%. It also gave a viability, T/C (second compound 0.0316 µM, first compound 0.3 µM) of 13.6%, a viability, T/C (second compound 0.0316 µM, first compound 0.949 µM) of 11.8% and a viability, T/C (second compound 0.0316 µM, first compound 3 µM) of 13.3%. It also gave a viability, T/C (second compound 0.1 µM, first compound 0.00949 µM) of 14.8%, a viability, T/C (second compound 0.1 µM, first compound 0.03 µM) of 13.2% and a viability, T/C (second compound 0.1 µM, first compound 0.0949 µM) of 13.4%. It also gave a viability, T/C (second compound 0.1 µM, first compound 0.3 µM) of 11.5%, a viability, T/C (second compound 0.1 µM, first compound 0.949 µM) of 12.4% and a viability, T/C (second compound 0.1 µM, first compound 3 µM) of 14.3%. It also gave a viability, T/C (second compound 0.316 µM, first compound 0.00949 µM) of 13.8%, a viability, T/C (second compound 0.316 µM, first compound 0.03 µM) of 11.2% and a viability, T/C (second compound 0.316 µM, first compound 0.0949 µM) of 11.2%. The viability, T/C (second compound 0.316 µM, first compound 0.3 µM) was 11.3%, the viability, T/C (second compound 0.316 µM, first compound 0.949 µM) was 12.4% and the viability, T/C (second compound 0.316 µM, first compound 3 µM) was 12.2%. It also gave a viability, T/C (second compound 1 µM, first compound 0.00949 µM) of 12.5%, a viability, T/C (second compound 1 µM, first compound 0.03 µM) of 12.4% and a viability, T/C (second compound 1 µM, first compound 0.0949 µM) of 12.6%. The viability, T/C (second compound 1 µM, first compound 0.3 µM) was 11.6%, the viability, T/C (second compound 1 µM, first compound 0.949 µM) was 14.2% and the viability, T/C (second compound 1 µM, first compound 3 µM) was 13.9%. For the same molecule, the viability, T/C (second compound 3.16 µM, first compound 0.00949 µM) was 15.9%, the viability, T/C (second compound 3.16 µM, first compound 0.03 µM) was 12.6% and the viability, T/C (second compound 3.16 µM, first compound 0.0949 µM) was 12%. For the same molecule, the viability, T/C (second compound 3.16 µM, first compound 0.3 µM) was 11.3%, the viability, T/C (second compound 3.16 µM, first compound 0.949 µM) was 15.8% and the viability, T/C (second compound 3.16 µM, first compound 3 µM) was 13.8%. It also gave a viability, T/C (second compound 10 µM, first compound 0.00949 µM) of 14.8%, a viability, T/C (second compound 10 µM, first compound 0.03 µM) of 12.8% and a viability, T/C (second compound 10 µM, first compound 0.0949 µM) of 12.1%. The viability, T/C (second compound 10 µM, first compound 0.3 µM) was 12.8%, the viability, T/C (second compound 10 µM, first compound 0.949 µM) was 12.6% and the viability, T/C (second compound 10 µM, first compound 3 µM) was 13.3%.

`CC(C)n1c(=O)n(C)c2cnc3cc(F)c(-c4ccc(OCCCN5CCCCC5)nc4)cc3c21` + Cc1cccc(N(C)C(=O)C2C(O)CCN2c2nc(C)cc(C(F)(F)F)c2C#N)c1 was tested, and the IC50 (second compound 0.0316 µM) was > 10 µM, the IC50 (second compound 0.1 µM) was > 10 µM and the IC50 (second compound 0.316 µM) was > 10 µM. The IC50 (second compound 1 µM) was > 10 µM, the IC50 (second compound 3.16 µM) was > 10 µM and the IC50 (second compound 10 µM) was > 10 µM. It also gave a viability, T/C (second compound 0.0316 µM, first compound 0.0316 µM) of 104%, a viability, T/C (second compound 0.0316 µM, first compound 0.1 µM) of 83% and a viability, T/C (second compound 0.0316 µM, first compound 0.316 µM) of 92.2%. For the same molecule, the viability, T/C (second compound 0.0316 µM, first compound 1 µM) was 78.4%, the viability, T/C (second compound 0.0316 µM, first compound 3.16 µM) was 78.8% and the viability, T/C (second compound 0.0316 µM, first compound 10 µM) was 72.5%. The viability, T/C (second compound 0.1 µM, first compound 0.0316 µM) was 90.5%, the viability, T/C (second compound 0.1 µM, first compound 0.1 µM) was 90.3% and the viability, T/C (second compound 0.1 µM, first compound 0.316 µM) was 91.7%. It also gave a viability, T/C (second compound 0.1 µM, first compound 1 µM) of 86.5%, a viability, T/C (second compound 0.1 µM, first compound 3.16 µM) of 77.7% and a viability, T/C (second compound 0.1 µM, first compound 10 µM) of 75.3%. For the same molecule, the viability, T/C (second compound 0.316 µM, first compound 0.0316 µM) was 85%, the viability, T/C (second compound 0.316 µM, first compound 0.1 µM) was 93.9% and the viability, T/C (second compound 0.316 µM, first compound 0.316 µM) was 72.3%. For the same molecule, the viability, T/C (second compound 0.316 µM, first compound 1 µM) was 92.6%, the viability, T/C (second compound 0.316 µM, first compound 3.16 µM) was 81.8% and the viability, T/C (second compound 0.316 µM, first compound 10 µM) was 69.7%. The viability, T/C (second compound 1 µM, first compound 0.0316 µM) was 81.8%, the viability, T/C (second compound 1 µM, first compound 0.1 µM) was 95.7% and the viability, T/C (second compound 1 µM, first compound 0.316 µM) was 94.2%. The viability, T/C (second compound 1 µM, first compound 1 µM) was 73.4%, the viability, T/C (second compound 1 µM, first compound 3.16 µM) was 75.6% and the viability, T/C (second compound 1 µM, first compound 10 µM) was 62.6%. For the same molecule, the viability, T/C (second compound 3.16 µM, first compound 0.0316 µM) was 89.2%, the viability, T/C (second compound 3.16 µM, first compound 0.1 µM) was 108% and the viability, T/C (second compound 3.16 µM, first compound 0.316 µM) was 88.8%. For the same molecule, the viability, T/C (second compound 3.16 µM, first compound 1 µM) was 87.8%, the viability, T/C (second compound 3.16 µM, first compound 3.16 µM) was 77.6% and the viability, T/C (second compound 3.16 µM, first compound 10 µM) was 64.7%. For the same molecule, the viability, T/C (second compound 10 µM, first compound 0.0316 µM) was 83.3%, the viability, T/C (second compound 10 µM, first compound 0.1 µM) was 88.9% and the viability, T/C (second compound 10 µM, first compound 0.316 µM) was 83.3%. It also gave a viability, T/C (second compound 10 µM, first compound 1 µM) of 89.1%, a viability, T/C (second compound 10 µM, first compound 3.16 µM) of 83.4% and a viability, T/C (second compound 10 µM, first compound 10 µM) of 53.6%.
